Molecules are shown by their SMILES.

One may read the inhibition as the drop in the measured response relative to a control, in per cent.

The assay addresses T1, human neuropeptide Y5 receptor (Homo sapiens, UniProt Q15761).
T1 construct: expressed in transfected cells
T1 sequence (Q15761 1-445): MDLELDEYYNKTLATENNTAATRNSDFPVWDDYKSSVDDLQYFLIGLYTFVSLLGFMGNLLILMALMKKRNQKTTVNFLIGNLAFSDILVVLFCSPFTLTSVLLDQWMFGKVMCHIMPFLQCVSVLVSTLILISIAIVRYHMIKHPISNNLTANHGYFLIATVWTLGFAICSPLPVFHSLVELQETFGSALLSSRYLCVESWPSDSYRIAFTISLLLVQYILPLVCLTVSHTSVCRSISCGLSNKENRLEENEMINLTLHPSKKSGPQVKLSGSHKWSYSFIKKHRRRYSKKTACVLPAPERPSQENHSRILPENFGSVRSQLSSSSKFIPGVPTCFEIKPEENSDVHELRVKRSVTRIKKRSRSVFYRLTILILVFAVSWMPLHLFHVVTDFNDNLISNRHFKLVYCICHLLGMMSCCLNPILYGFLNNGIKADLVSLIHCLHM
Nature of the assay: NPY5 HTS Centrifugation Assay: competition with 125I-PYY for binding to NPY5-transfected HEK293 cell membranes. Conditions: 80 pM 125I-PYY, 1 hr room temperature, read-out: % Inh @ 3 uM (% Inhibition of ^125 I-PYY Binding). How it is done:
The compounds described in this invention were evaluated for binding to the human neuropeptide Y5 receptor.
The human NPY5 receptor cDNA (Genbank Accession number U66275) was inserted into the vector pClneo (Invitrogen) and transfected into human embryonic kidney cells (HEK-293) via Calcium phosphate method (Cullen 1987). Stably transfected cells were selected with G-418 (600 ug/mL). Stably transfected cells served as the source for the membranes for the NPY5 receptor binding assay.
NPY5-transfected HEK293 cells were grown to confluence in 150 cm^2 culture dishes. Cells were washed once with phosphate-buffered saline (Gibco Cat#14040-133). Cells were then incubated in phosphate-buffered saline without Calcium and without Magnesium, supplemented with 2 mM EDTA. Cells were incubated for 10 minutes at room temperature and the cells were collected by repetitive pipeting. Cells were formed into pellets and then frozen at -80 until needed. Frozen pellets were homogenized with a polytron at full speed for 12 seconds in a homogenization buffer (20 mM Tris HCl, 5 mM EDTA, pH 7.4). Homogenates were centrifuged for 5 minutes at 4C at 200 g. Supernatants were transferred to corex tubes and centrifuged for 25 minutes at 28,000 g. Pellets were re-suspended in Binding (20 mM HEPES, 10 mM NaCl, 0.22 mM KH2 PO4, 1.3 mM CaCl2, 0.8 mM MgSO4, pH 7.4). Membranes were kept on ice until use.
A competition binding assay, known to those skilled in the art, was used in which aminotetralins (I) compete with ^125 I-PYY for binding to cell membranes. In simple terms, the less ^125 I-PYY bound to the membranes implies that a compound is a good inhibitor (competitor). Bound ^125 I-PYY is determined by centrifugation of membranes, aspirating supernatant, washing away residual ^125 I-PYY and subsequently counting the bound sample in a g-counter.
Compounds to be tested were prepared as 10× stocks in binding buffer and added first to assay tubes (RIA vials, Sarstedt). Twenty (20) μL of each 10× compound stock is pipeted into vials and 80 μL of ^125 I-PYY (NEN catalog number NEX240), which has been diluted to a concentration of 200 pM in 0.25% BSA in binding buffer, is added to the compound tubes (final concentration of ^125 I-PYY is 80 pM). To each tube is added 100 μL of membranes and the mixture is agitated by pipeting 2 times. Samples are incubated for 1 hr at room temperature. Aluminum cast plates (Sarstedt) containing the vials are then centrifuged 10 minutes at 3200 rpm in a Sorvall RT6000. Supernatant is then aspirated. To each vial 400 μL PBS is added and this is then aspirated again. Vials are then put in carrier polypropylene 12×75 tube and counted in gamma counter (Packard). Non-specific binding is determined in the presence of 300 nM NPY. Percent inhibition of ^125 I-PYY binding is calculated by subtracting non-specific binding from the test samples (compound (I)), taking these counts and dividing by total binding, and multiplying by 100. Inhibitory concentration values (IC50) of compounds that show appreciable inhibition of ^125 I-PYY binding are calculated by obtaining percent inhibition of ^125 I-PYY binding values at different concentrations of the test compound, and using a graphing program such as GraphPad Prism (San Diego, Calif.) to calculate the concentration of test compound that inhibits fifty-percent of ^125 I-PYY binding (Table 4). These operations are known to those skilled in the art.
With `COc1ccc2c(c1)CC[C@H](NC[C@H]1CC[C@H](CNS(=O)(=O)c3ccc4ccccc4c3)CC1)[C@@H]2Cc1ccccc1` (relative stereo) [Compound 10, rac-[1α,2α(trans)]-N-[[[[[1,2,3,4-tetrahydro-6-methoxy-1-(phenylmethyl)-2-naphthalenyl]amino]methyl]-4-cyclohexyl]methyl]2-naphthalenesulfonamide], the inhibition at 3 µM worked out at 96%. In the case of `COc1ccc2c(c1)CC[C@H](NCCCCCNS(=O)(=O)c1ccc3ccccc3c1)[C@@H]2Cc1ccccc1` (relative stereo) [Compound 11, rac-[1α,2α(trans)]-N-[[[[[1,2,3,4-tetrahydro-6-methoxy-1-(phenylmethyl)-2-naphthalenyl]amino]-5-pentyl]2-naphthalenesulfonamide] it was 95%. In the case of `COc1ccc2c(c1)CC[C@H](NC[C@H]1CC[C@H](CNS(=O)(=O)c3ccc4ccccc4c3)CC1)[C@@H]2Cc1cccnc1` (relative stereo) [Compound 18, rac-[1α,2α(trans)]-N-[[[[[1,2,3,4-tetrahydro-6-methoxy-1-(3-pyridinylmethyl)-2-naphthalenyl]amino]methyl]-4-cyclohexyl]methyl]2-naphthalenesulfonamide] it was 96%; in that of `O=S(=O)(NC[C@H]1CC[C@H](CN[C@H]2CCc3cc(F)ccc3[C@H]2Cc2ccccc2)CC1)c1ccccc1F` (relative stereo) [Compound 26, rac-[1α,2α(trans)]-N-[[[[[1,2,3,4-tetrahydro-6-fluoro-1-(3-phenylmethyl)-2-naphthalenyl]amino]methyl]-4-cyclohexyl]methyl]2-fluorobenzenesulfonamide], 107%.

As for `COc1ccc2c(c1)CC[C@H](NC[C@H]1CC[C@H](CNS(=O)(=O)c3ccc4ccccc4c3)CC1)[C@@H]2c1ccccc1` (relative stereo) [Compound 34, [1α,2α(trans)]-N-[[[[[1,2,3,4-tetrahydro-6-methoxy-1-phenyl-2-naphthalenyl]amino]methyl]-4-cyclohexyl]methyl]2-naphthlenesulfonamide], the inhibition at 3 µM turned out to be 46%. In the case of `C=CC[C@@H]1c2ccc(OC)cc2CC[C@@H]1NC[C@H]1CC[C@H](CNS(=O)(=O)c2ccccc2)CC1` (relative stereo) [Compound 39, rac-[1α,2α(trans)]-N-[[[[[1,2,3,4-tetrahydro-6-methoxy-1-(1-propene-3-yl)-2-naphthalenyl]amino]methyl]4-cyclohexyl]methyl] benzenesulfonamide] it was 102%. As for `COc1ccc2c(c1)CC[C@H](NC[C@H]1CC[C@H](CNS(=O)(=O)c3ccccc3)CC1)[C@@H]2CCCO` (relative stereo) [Compound 40, rac-[1α,2α(trans)]-N-[[[[[1,2,3,4-tetrahydro-6-methoxy-1-(3-hydroxypropyl)-2-naphthalenyl]amino]methyl]-4-cyclohexyl]methyl] benzenesulfonamide], the figure is 91%; as for `CCC[C@@H]1c2ccc(OC)cc2CC[C@@H]1NC[C@H]1CC[C@H](CNS(=O)(=O)c2ccccc2)CC1` (relative stereo) [Compound 42, rac-[1α,2α(trans)]-N-[[[[[1,2,3,4-tetrahydro-6-methoxy-1-(n-propyl)-2-naphthalenyl]amino]methyl]-4-cyclohexyl]methyl] benzenesulfonamide], 101%; as for `O=S(=O)(NCCCCCN[C@H]1CCc2ccccc2[C@H]1Cc1ccccc1)c1ccc2ccccc2c1` (relative stereo) [Compound 46], 89%. In the case of `COc1ccc2c(c1)CC[C@H](NCCCCCCCNS(=O)(=O)c1ccc3ccccc3c1)[C@@H]2Cc1ccccc1` (relative stereo) [Compound 47] it was 79%; in that of `COc1ccc2c(c1)CC[C@H](NCc1ccc(CNS(=O)(=O)c3ccc4ccccc4c3)cc1)[C@@H]2Cc1ccccc1` (relative stereo) [Compound 49], 60%. For the compound `COc1ccc2c(c1)CC[C@H](NC[C@H]1CC[C@H](CNS(=O)(=O)c3cccc4ccccc34)CC1)[C@@H]2Cc1ccccc1` (relative stereo) [Compound 51], the inhibition at 3 µM was 95%. In the case of `COc1ccc2c(c1)CC[C@H](NC[C@H]1CC[C@H](CNS(=O)(=O)c3ccccc3)CC1)[C@@H]2Cc1ccccc1` (relative stereo) [Compound 52] it was 99%; in that of `COc1ccc2c(c1)CC[C@H](NC[C@H]1CC[C@H](CNS(=O)(=O)c3ccccc3[N+](=O)[O-])CC1)[C@@H]2Cc1ccccc1` (relative stereo) [Compound 54], 94%.

Regarding `COc1ccc2c(c1)CCC(NC[C@H]1CC[C@H](CNS(=O)(=O)c3ccc(S(C)(=O)=O)cc3)CC1)C2Cc1ccccc1` (relative stereo) [Compound 55], the inhibition at 3 µM turned out to be 90%. In the case of `COc1ccc2c(c1)CCC(NC[C@H]1CC[C@H](CNS(=O)(=O)c3cc(Cl)cc(Cl)c3)CC1)C2Cc1ccccc1` (relative stereo) [Compound 56] it was 73%; in that of `COc1ccc2c(c1)CCC(NC[C@H]1CC[C@H](CNS(=O)(=O)c3ccccc3F)CC1)C2Cc1ccccc1` (relative stereo) [Compound 57], 98%. As for `COc1ccc2c(c1)CCC(NC[C@H]1CC[C@H](CNS(=O)(=O)c3ccc(F)cc3)CC1)C2Cc1ccccc1` (relative stereo) [Compound 58], the inhibition at 3 µM turned out to be 91%. For `COc1ccc2c(c1)CC[C@H](NC[C@H]1CC[C@H](CNS(=O)(=O)c3cccs3)CC1)[C@@H]2Cc1ccccc1` (relative stereo) [Compound 59], the inhibition at 3 µM is 102%. For the compound `COc1ccc2c(c1)CCC(NC[C@H]1CC[C@H](CNS(=O)(=O)c3ccccc3Cl)CC1)C2Cc1ccccc1` (relative stereo) [Compound 66], the inhibition at 3 µM stood at 99%. In the case of `O=[N+]([O-])c1ccccc1S(=O)(=O)NC[C@H]1CC[C@H](CNC2CCc3cc(F)ccc3C2Cc2ccccc2)CC1` (relative stereo) [Compound 72] it was 106%. Take `O=S(=O)(NC[C@H]1CC[C@H](CNC2CCc3cc(F)ccc3C2Cc2ccccc2)CC1)c1ccccc1Cl` (relative stereo) [Compound 73]: the inhibition at 3 µM is 107%. In the case of `O=S(=O)(NC[C@H]1CC[C@H](CNC2CCc3cc(F)ccc3C2Cc2ccccc2)CC1)c1ccccc1Br` (relative stereo) [Compound 74] it was 105%; in that of `COc1ccc2c(c1)C(Cc1ccccc1)C(NC[C@H]1CC[C@H](CNS(=O)(=O)c3ccc4ccccc4c3)CC1)CC2` (relative stereo) [Compound 80], 75%; in that of `COc1ccc2c(c1)CCC(NC[C@H]1CC[C@H](CNS(=O)(=O)c3ccccc3)CC1)C2Cc1ccc2ccccc2c1` (relative stereo) [Compound 81], 89%.

Consider `COc1ccc2c(c1)CCC(NC[C@H]1CC[C@H](CNS(=O)(=O)c3ccc4ccccc4c3)CC1)C2Cc1ccc2ccccc2c1` (relative stereo) [Compound 82], for which the inhibition at 3 µM was 54%. In the case of `COc1cccc(CC2c3ccc(OC)cc3CCC2NC[C@H]2CC[C@H](CNS(=O)(=O)c3ccccc3)CC2)c1` (relative stereo) [Compound 83] it was 92%.

These data come from US6140354A, “N-substituted aminotetralins as ligands for the neuropeptide Y Y5 receptor useful in the treatment of obesity and other disorders” (Ortho-McNeil Pharmaceutical, Inc., priority 1999, dated 2000).
